From EP0402852A1, “Irreversible bombesin antagonists” (priority 1989, dated 1990)
Read-outs that look alike come from different tables or passages of the source. Starred links: 1 amine or outer side, 2 acyl side, 3 side chain; linkers in the order of their positions; H or OH if unused. Non-standard residues stand in square brackets, D forms with d. Residues, ends and D or L forms follow the SMILES beside them. *: point of attachment. X2 = CC(C)C[C@@H](CN[C@@H](CC(C)C)C(N)=O)N*; Carbamoyl(2-ClEt,NO) = O=NN(CCCl)C(=O)*; X1 = O=C(c1ccc(N(CCCl)CCCl)cc1)*; pGlu = O=C1CC[C@@H](C(=O)O)N1; Suc = O=C(CCC(=O)[*:2])[*:1]; Nle = CCCC[C@H](N)C(=O)O; CH2Cl = ClC*

What was measured:
[1] = test system: mouse Swiss 3T3 fibroblasts; assay: Mitogenesis: [H³]thymidine incorporation in quiescent, confluent Swiss 3T3 cells; assay type: cell-based; conditions: for FOLD INCREASE OVER BASAL VALUE: [H³]thymidine incorporation, compound alone
Experimental: The effect on mitogenesis was determined in quiescent and confluent Swiss 3T3 cells maintained in serum free medium (A.N.Corps et al (1985) Biochem J. 231, 781-785). In a first set of experiments, analogues are given alone or in combination with bombesin. In a second set of experiments, cells are pre-treated with the alkylating peptides, washed, left at 37°C for 24 hours and then challenged with bombesin. In both cases, DNA synthesis was evaluated as [H³]thymidine incorporation (Table 2).

[2] = test system: p115 protein associated with the bombesin receptor; assay: Phosphorylation of the p115 protein (activation of protein-tyrosin kinase); assay type: cell-based
Experimental: Mitogenic effect of bombesin and its analogues were also evaluated as activation of the protein-tyrosin kinase that phosphorylates a 115 KD protein (p115) associated with the bombesin receptor complex (D. Cirillo et al. (1986) Mol.Cell. Biol. 6, 4641- 4649) (Table 3). In addition, exposure to these peptides in the 0.1-50 µM range was associated with significant reduction in the growth of SCLC cell lines (such as NCI-H345, NCI-N592, NCI-H128), as well as of prostatic carcinoma cell lines (such as DU145 and PC3).

bombesin receptors = biological target: T1, bombesin receptors (Mus musculus, UniProt P21729); assay: Binding affinity for the bombesin receptors on mouse Swiss 3T3 fibroblasts
T1 construct: bombesin receptors was determined on mouse Swiss 3T3 fibroblasts; endogenous in cells; host or cells: mouse Swiss 3T3 fibroblasts
Experimental: The binding affinity of the compounds of the present invention for the bombesin receptors was determined on mouse Swiss 3T3 fibroblasts (I. Zachary and E. Rozengurt (1985) Proc. Natl. Acad. Sci. USA, 82, 7616-7620) (Table 1).

[3] = binding affinity on mouse Swiss 3T3 fibroblasts
[4] = binding affinity on mouse Swiss 3T3 fibroblasts, read-out: ID₅₀

T1 sequence (P21729 whole entry): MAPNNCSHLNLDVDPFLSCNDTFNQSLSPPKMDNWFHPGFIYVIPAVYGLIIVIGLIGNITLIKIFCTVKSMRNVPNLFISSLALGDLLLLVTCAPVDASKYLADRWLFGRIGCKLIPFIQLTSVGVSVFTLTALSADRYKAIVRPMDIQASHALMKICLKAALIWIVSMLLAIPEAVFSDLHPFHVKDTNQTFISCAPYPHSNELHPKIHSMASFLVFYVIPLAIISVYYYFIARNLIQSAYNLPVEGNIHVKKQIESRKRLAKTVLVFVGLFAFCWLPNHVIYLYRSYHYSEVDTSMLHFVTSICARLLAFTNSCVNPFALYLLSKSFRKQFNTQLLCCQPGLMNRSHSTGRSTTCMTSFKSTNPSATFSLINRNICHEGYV

## 4-(ClCH₂CH₂)₂NC₆H₄CO-Thr-Gln-Trp-Ala-Val-Gly-His(Dnp)-Leu-Met-NH₂ (TQWAVGH; N-mustard benzoyl; His(Dnp)-Leu-Met-NH2; printed: Thr-Gln-Trp-Ala-Val-Gly-His) [III]
[1]; A: analogues given in combination with BBS, 0.5µM
  % INHIBITION IN THE PRESENCE OF 25nM BBS: 0%
[1]; A: analogues given in combination with BBS, 5 µM
  % INHIBITION IN THE PRESENCE OF 25nM BBS: 0%
[1]; B: cells pre-treated with analogues, washed, left at 37°C for 24 h, then challenged with BBS, 0.5µM
  % INHIBITION IN THE PRESENCE OF 25nM BBS: 51±11%
[1]; B: cells pre-treated with analogues, washed, left at 37°C for 24 h, then challenged with BBS, 5 µM
  % INHIBITION IN THE PRESENCE OF 25nM BBS: 53+8%
[1]; 0.5µM
  FOLD INCREASE OVER BASAL VALUE: 2.3
[1]; 5 µM
  FOLD INCREASE OVER BASAL VALUE: 3.4
[2]
  MINIMAL ACTIVE DOSE: 500 nM
Bombesin receptors; [3]
  ID₅₀: 1815 ± 330 nM

## CSCC[C@H](NC(=O)[C@H](CC(C)C)NC(=O)CNC(=O)[C@@H](NC(=O)[C@H](C)NC(=O)[C@H](Cc1c[nH]c2ccccc12)NC(=O)[C@H](CCC(N)=O)NC(=O)[C@@H](NC(=O)c1ccc(N(CCCl)CCCl)cc1)[C@@H](C)O)C(C)C)C(N)=O [I, 4-(ClCH₂CH₂)₂NC₆H₄CO-Thr-Gln-Trp-Ala-Val-Gly-Leu-Met-NH₂] (X1-TQWAVGLM-NH2)
Bombesin receptors
  IC50: 1.36 ± 0.266 µM

## CCCC[C@H](NC(=O)[C@H](CC(C)C)NC(=O)CNC(=O)[C@@H](NC(=O)[C@H](C)NC(=O)[C@H](Cc1c[nH]c2ccccc12)NC(=O)[C@H](CCC(N)=O)NC(=O)[C@@H](NC(=O)c1ccc(N(CCCl)CCCl)cc1)[C@@H](C)O)C(C)C)C(N)=O [II, 4-(ClC₂CH₂)₂NC₆H₄CO-Thr-Gln-Trp-Ala-Val-Gly-Leu-Nle-NH₂] (X1-TQWAVGL[Nle]-NH2)
Bombesin receptors
  IC50: 0.438 ± 0.111 µM

## CSCC[C@H](NC(=O)[C@H](CC(C)C)NC(=O)[C@H](Cc1c[nH]cn1)NC(=O)CNC(=O)[C@@H](NC(=O)[C@H](C)NC(=O)[C@H](Cc1c[nH]c2ccccc12)NC(=O)[C@H](CCC(N)=O)NC(=O)[C@@H](NC(=O)c1ccc(N(CCCl)CCCl)cc1)[C@@H](C)O)C(C)C)C(N)=O [IV, 4-(ClCH₂CH₂)₂NC₆H₄CO-Thr-Gln-Trp-Ala-Val-Gly-His-Leu-Met-NH₂]
Bombesin receptors
  IC50: 0.0007 ± 0.0002 µM

## CCCC[C@H](NC(=O)[C@H](CC(C)C)NC(=O)CNC(=O)[C@@H](NC(=O)[C@H](C)NC(=O)[C@H](Cc1c[nH]c2ccccc12)NC(=O)[C@H](CCC(N)=O)NC(=O)[C@@H](NC(=O)N(CCCl)N=O)[C@@H](C)O)C(C)C)C(N)=O [V, ClCH₂CH₂N(NO)CO-Thr-Gln-Trp-Ala-Val-Gly-Leu-Nle-NH₂] ({Carbamoyl(2-ClEt,NO)}-TQWAVGL[Nle]-NH2)
Bombesin receptors
  IC50: 1.34 ± 0.199 µM

## CCCC[C@H](NC(=O)CCC(=O)N[C@H](C(=O)N[C@@H](CCC(N)=O)C(=O)N[C@@H](Cc1c[nH]c2ccccc12)C(=O)N[C@@H](C)C(=O)N[C@H](C(=O)NCC(=O)N[C@@H](CC(C)C)C(=O)N[C@@H](CCSC)C(N)=O)C(C)C)[C@@H](C)O)C(=O)CCl [VI, CH₃(CH₂)₃CH(COCH₂Cl)NHCO(CH₂)₂CO-Thr-Gln-Trp-Ala-Val-Gly-Leu-Met-NH₂] ({CH2Cl-Nle-Suc}-TQWAVGLM-NH2)
Bombesin receptors; [4]
  IC50: 0.648 ± 0.29 µM

## CC(C)C[C@@H](CN[C@@H](CC(C)C)C(N)=O)NC(=O)[C@H](Cc1cnc[nH]1)NC(=O)CNC(=O)[C@@H](NC(=O)[C@H](C)NC(=O)[C@H](Cc1c[nH]c2ccccc12)NC(=O)[C@H](CCC(N)=O)NC(=O)[C@H](CC(N)=O)NC(=O)CNC(=O)[C@H](CC(C)C)NC(=O)[C@H](CCCN=C(N)N)NC(=O)[C@H](CCC(N)=O)NC(=O)[C@@H]1CCC(=O)N1)C(C)C [[Leu¹³Ψ(CH₂-NH)Leu¹⁴]BBS, reference compound] ([pGlu]QRLGNQWAVGH-X2)
Bombesin receptors
  IC50: 0.214 ± 0.03 µM

## Glp-Gln-Arg-Leu-Gly-Asn-Gln-Trp-Ala-Val-Gly-His-Leu-Met-NH₂ [BBS, reference compound]
[1]; 5nM
  FOLD INCREASE OVER BASAL VALUE: 3.0±1
[2]
  MINIMAL ACTIVE DOSE: 3 nM
Bombesin receptors; [3]
  ID₅₀: 12.6 ± 3.8 nM

## Spantide [reference compound]
[2]
  MINIMAL ACTIVE DOSE: > 10000 nM
Bombesin receptors; [4]
  IC50: 11.1 µM
